Measured values taken from patent US20110178062A1, “INDOLE AND BENZOTHIOPHENE COMPOUNDS AS MODULATORS OF THE HISTAMINE H3 RECEPTOR” (priority 2007, published 2011).
pKi: −log10 of the molar value.

Tests used:
[1] = biological target: T1, Rat H3 (Rattus norvegicus, UniProt Q9QYN8); assay: H3 Receptor Binding (Rat), rat brain membranes, N-[3H]-α-methylhistamine; settings: rat brain without cerebellum; 0.8 nM N-[3H]-α-methylhistamine; average of results
Description: A rat brain without cerebellum (Zivic Laboratories Inc., Pittsburgh, Pa.) was homogenized in 50 mM Tris-HCl/5 mM EDTA and centrifuged at 1,000 rpm for 5 min. The supernatant was removed and recentrifuged at 15,000 rpm for 30 min. Pellets were rehomogenized in 50 mM Tris/5 mM EDTA (pH 7.4). Membranes were incubated with 0.8 nM N—[^3H]-α-methylhistamine plus/minus test compounds for 60 min at 25° C. and harvested by rapid filtration over GF/C glass fiber filters (pretreated with 0.3% polyethylenimine) followed by four washes with buffer. Nonspecific binding was defined in the presence of 100 μM histamine. Inhibitory concentration (responsible for 50% inhibition of maximal effect, IC50) values were determined by a single site curve-fitting program (GraphPad, San Diego, Calif.) and converted to Ki values based on a N—[^3H]-α-methylhistamine dissociation constant (Kd) of 0.8 nM. Data for compounds tested in this assay are presented in Table 2 as an average of the results obtained.
Target sequence in this assay (Q9QYN8 1-397 isoform Q9QYN8-3): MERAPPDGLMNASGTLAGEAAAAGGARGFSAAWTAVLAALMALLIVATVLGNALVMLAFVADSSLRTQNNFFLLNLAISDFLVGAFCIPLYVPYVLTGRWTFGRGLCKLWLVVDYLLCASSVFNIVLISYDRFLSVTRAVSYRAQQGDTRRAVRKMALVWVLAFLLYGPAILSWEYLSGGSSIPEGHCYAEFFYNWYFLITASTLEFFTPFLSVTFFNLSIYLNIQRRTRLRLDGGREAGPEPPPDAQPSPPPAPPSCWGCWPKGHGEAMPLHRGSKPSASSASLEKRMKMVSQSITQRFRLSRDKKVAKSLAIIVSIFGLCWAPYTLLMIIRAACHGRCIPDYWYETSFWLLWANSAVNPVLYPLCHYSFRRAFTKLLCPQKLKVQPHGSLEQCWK

[2] = biological target: T2, human H3 receptor (Homo sapiens, UniProt Q9Y5N1); assay: Cyclic AMP Accumulation, SK-N-MC reporter cells (human H3); format: cell-based; settings: SK-N-MC cells expressing reporter construct and human H3 receptor; read-out: Human pA2 (converted)
T2 construct: expressed in transfected cells; host or cells: SK-N-MC cells
Description: (§1) Sublines of SK-N-MC cells were created that expressed a reporter construct and either the human or rat H3 receptor. The pA2 values were obtained as described by Barbier et al. (2004). Data for compounds tested in these assays are presented in Table 3, as an average of the results obtained (NT=not tested).

[3] = biological target: T3, cloned human H3 receptors, stably expressed in SK-N-MC cells (Homo sapiens, UniProt Q9Y5N1); assay: H3 Receptor Binding (Human); settings: average of the results obtained
T3 construct: expressed in transfected cells; host or cells: SK-N-MC cells
Description: Binding of compounds to the cloned human H3 receptors, stably expressed in SK-N-MC cells, was performed as described by Barbier, A. J. et al. (Br. J. Pharmacol. 2004, 143(5), 649-661). Data for compounds tested in this assay are presented in Table 1 as an average of the results obtained.

[4] = biological target: T1, Rat H3; assay: Cyclic AMP Accumulation, SK-N-MC reporter cells (rat H3); format: cell-based; design: expressed in transfected cells; host or cells: SK-N-MC cells (subline with reporter construct); settings: SK-N-MC cells expressing reporter construct and rat H3 receptor; read-out: Rat pA2 (converted)
Description: as §1
Target sequence in this assay (Q9QYN8 whole entry): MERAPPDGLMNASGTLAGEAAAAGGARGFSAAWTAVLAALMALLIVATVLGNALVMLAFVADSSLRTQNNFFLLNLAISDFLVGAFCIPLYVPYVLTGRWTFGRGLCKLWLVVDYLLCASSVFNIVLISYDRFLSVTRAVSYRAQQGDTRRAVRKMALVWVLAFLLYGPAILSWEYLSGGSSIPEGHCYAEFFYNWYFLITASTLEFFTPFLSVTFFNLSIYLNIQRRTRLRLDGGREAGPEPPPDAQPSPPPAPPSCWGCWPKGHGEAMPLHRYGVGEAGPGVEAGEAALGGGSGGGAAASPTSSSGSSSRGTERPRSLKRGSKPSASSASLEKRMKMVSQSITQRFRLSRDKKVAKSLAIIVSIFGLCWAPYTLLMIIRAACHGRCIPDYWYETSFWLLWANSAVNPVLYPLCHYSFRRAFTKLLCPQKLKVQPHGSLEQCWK

T3 sequence (Q9Y5N1 whole entry): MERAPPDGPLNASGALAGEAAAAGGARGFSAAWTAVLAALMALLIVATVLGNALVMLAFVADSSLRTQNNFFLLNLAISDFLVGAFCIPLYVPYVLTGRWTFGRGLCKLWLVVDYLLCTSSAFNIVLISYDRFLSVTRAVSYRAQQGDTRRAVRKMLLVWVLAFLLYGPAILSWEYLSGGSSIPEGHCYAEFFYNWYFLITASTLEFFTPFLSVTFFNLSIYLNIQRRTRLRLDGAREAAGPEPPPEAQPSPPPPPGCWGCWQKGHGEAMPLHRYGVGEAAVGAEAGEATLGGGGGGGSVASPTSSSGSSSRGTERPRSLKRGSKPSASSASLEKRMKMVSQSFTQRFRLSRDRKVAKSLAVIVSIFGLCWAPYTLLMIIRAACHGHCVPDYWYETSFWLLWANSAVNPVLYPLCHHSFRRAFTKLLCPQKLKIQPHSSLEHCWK
T2 sequence (Q9Y5N1 whole entry): as above

pKi [1] | Kb [2] [nM] | pKi [3] | Kb [4] [nM] | SMILES
7.85 | 0.234 | 9.00 |  | CC(C)N1CCN(C(=O)c2ccc3c(CN4CCOCC4)c[nH]c3c2)CC1 [Example 4, (4-Isopropyl-piperazin-1-yl)-(3-morpholin-4-ylmethyl-1H-indol-6-yl)-methanone]
7.55 | 0.537 | 9.00 |  | O=C(c1ccc2c(CN3CCOCC3)c[nH]c2c1)N1CCN(C2CC2)CC1 [Example 5, (4-Cyclopropyl-piperazin-1-yl)-(3-morpholin-4-ylmethyl-1H-indol-6-yl)-methanone]
8.70 |  | 9.00 | 2 | CC(C)N1CCCN(C(=O)c2ccc3c(CN4CCOCC4)c[nH]c3c2)CC1 [Example 7, (4-Isopropyl-[1,4]diazepan-1-yl)-(3-morpholin-4-ylmethyl-1H-indol-6-yl)-methanone]
7.72 | 1.1 | 8.30 |  | O=C(c1cccc2c(CN3CCOCC3)c[nH]c12)N1CCN(C2CCC2)CC1 [Example 21, (4-Cyclobutyl-piperazin-1-yl)-(3-morpholin-4-ylmethyl-1H-indol-7-yl)-methanone]
 | 46.8 | 7.59 | 67.6 | O=C(c1ccc2c(CN3CCN(C4CCCC4)CC3)c[nH]c2c1)N1CCCCCC1 [Example 91, Azepan-1-yl-[3-(4-cyclopentyl-piperazin-1-ylmethyl)-1H-indol-6-yl]-methanone]
